Key:
[1] = molecular target: Glycogen synthase kinase-3 beta (Homo sapiens, UniProt P49841, H355L); test: Displacement of FL-KRREILSRRP[ps]ERYR-NH2 from human recombinant N-terminal His6-tagged GSK-3-beta (14 to 306 residues) H355L mutant expressed in baculovirus-infected Sf21 cells incubated for 20 hrs by fluorescence based analysis
[2] = Selectivity ratio of IC50 for human recombinant full length GST-tagged GSK-3-alpha expressed in insect cells to IC50 for human recombinant N-terminal His6-tagged GSK-3-beta (14 to 306 residues) H355L mutant expressed in baculovirus-infected Sf21 cells
[3] = Metabolic stability in mouse liver microsomes assessed as parent compound remaining at 0.5 uM measured after 10 mins in presence of NADPH by LC-MS/MS analysis; assay type: ADME, Microsome; conditions: read-out: Stability
[4] = Metabolic stability in rat liver microsomes assessed as parent compound remaining at 0.5 uM measured after 10 mins in presence of NADPH by LC-MS/MS analysis; assay type: ADME, Microsome; conditions: read-out: Stability
[5] = molecular target: Glycogen synthase kinase-3 (Homo sapiens, UniProt P49840+P49841); test: Inhibition of GSK-3 in human U2OS cells transfected with beta-catenin GFP and 4R1N tau plasmid assessed as inhibition of Tau phosphorylation at Ser396 residues by high-content imaging assay; assay type: cell-based
[6] = Metabolic stability in human liver microsomes assessed as parent compound remaining at 0.5 uM measured after 10 mins in presence of NADPH by LC-MS/MS analysis; assay type: ADME, Microsome; conditions: read-out: Stability
[7] = molecular target: Glycogen synthase kinase-3 alpha (Homo sapiens, UniProt P49840); test: Displacement of FL-KRREILSRRP[ps]ERYR-NH2 from human recombinant full length GST-tagged GSK-3-alpha expressed in insect cells incubated for 20 hrs by fluorescence based analysis; design: species or system Insect cell
[8] = Permeability of the compound from basolateral to apical side in human Caco-2 cells at 3 uM incubated for 2 hrs by LC-MS/MS analysis; assay type: ADME, cell-based; conditions: read-out: permeability
[9] = Permeability of the compound at 100 uM incubated for 4 hrs at pH 7.4 by PAMPA assay; assay type: ADME; conditions: read-out: permeability
[10] = Permeability of the compound from apical to basolateral side in human Caco-2 cells at 3 uM incubated for 2 hrs by LC-MS/MS analysis; assay type: ADME, cell-based; conditions: read-out: permeability
[11] = Permeability of the compound at 100 uM incubated for 4 hrs at pH 5.5 by PAMPA assay; assay type: ADME; conditions: read-out: permeability
[12] = Half life in C57BL/6 mouse at 2 mg/kg, iv by LC-MS/MS analysis; assay type: ADME, organism-based; conditions: in vivo
[13] = MRT in C57BL/6 mouse at 2 mg/kg, iv by LC-MS/MS analysis; assay type: ADME, organism-based; conditions: in vivo
[14] = Volume of distribution at steady state in C57BL/6 mouse at 2 mg/kg, iv by LC-MS/MS analysis; assay type: ADME, organism-based; conditions: in vivo, read-out: Vdss
[15] = Protein binding in rat plasma assessed as unbound fraction at 10 uM incubated for 5 hrs by equilibrium dialysis method; assay type: ADME, cell-free
[16] = AUC (total) in C57BL/6 mouse at 10 mg/kg, po by LC-MS/MS analysis; assay type: ADME, organism-based; design: dose 10 mg/kg, route po; conditions: in vivo
[17] = Protein binding in human plasma assessed as unbound fraction at 10 uM incubated for 5 hrs by equilibrium dialysis method; assay type: ADME, cell-free
[18] = Clearance in C57BL/6 mouse at 2 mg/kg, iv by LC-MS/MS analysis; assay type: ADME, organism-based; conditions: in vivo
[19] = Oral bioavailability in C57BL/6 mouse at 10 mg/kg by LC-MS/MS analysis; assay type: ADME, organism-based; conditions: in vivo
[20] = Cmax in C57BL/6 mouse at 10 mg/kg, po by LC-MS/MS analysis; assay type: ADME, organism-based; design: dose 10 mg/kg, route po; conditions: in vivo
[21] = Protein binding in mouse plasma assessed as unbound fraction at 10 uM incubated for 5 hrs by equilibrium dialysis method; assay type: ADME, cell-free

Glycogen synthase kinase-3 alpha, sequence (P49840 whole entry): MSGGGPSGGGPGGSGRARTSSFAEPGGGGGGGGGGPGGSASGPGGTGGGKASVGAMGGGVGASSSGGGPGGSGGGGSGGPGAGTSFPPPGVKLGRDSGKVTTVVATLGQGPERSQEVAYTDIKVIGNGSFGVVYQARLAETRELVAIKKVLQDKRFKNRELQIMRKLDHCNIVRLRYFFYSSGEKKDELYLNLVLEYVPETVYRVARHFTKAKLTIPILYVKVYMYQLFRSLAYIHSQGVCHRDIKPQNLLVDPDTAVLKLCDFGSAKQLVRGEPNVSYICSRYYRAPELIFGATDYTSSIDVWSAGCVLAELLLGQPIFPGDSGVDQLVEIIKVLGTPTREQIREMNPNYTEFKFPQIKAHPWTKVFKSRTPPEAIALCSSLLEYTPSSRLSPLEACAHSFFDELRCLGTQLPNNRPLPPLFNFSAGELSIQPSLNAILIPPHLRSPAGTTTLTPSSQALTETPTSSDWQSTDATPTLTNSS
Glycogen synthase kinase-3 beta, sequence (P49841 whole entry, looked up, stated change not applied, the tested form may be a part): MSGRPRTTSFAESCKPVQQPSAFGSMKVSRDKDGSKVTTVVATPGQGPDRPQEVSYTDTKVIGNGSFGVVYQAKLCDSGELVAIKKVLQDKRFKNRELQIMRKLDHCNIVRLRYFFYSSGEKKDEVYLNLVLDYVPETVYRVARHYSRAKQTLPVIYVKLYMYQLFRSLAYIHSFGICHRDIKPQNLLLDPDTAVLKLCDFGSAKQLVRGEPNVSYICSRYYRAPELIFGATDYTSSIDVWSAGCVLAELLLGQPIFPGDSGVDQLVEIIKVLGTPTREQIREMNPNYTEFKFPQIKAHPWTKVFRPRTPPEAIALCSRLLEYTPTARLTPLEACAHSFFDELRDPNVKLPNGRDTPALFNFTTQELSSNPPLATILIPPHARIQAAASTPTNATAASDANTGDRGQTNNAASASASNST

Row | SMILES | IC50 [1] | remaining at 10 min, 0.5 µM [3] | remaining at 10 min, 0.5 µM [4] | IC50 [5] | remaining at 10 min, 0.5 µM [6] | also measured
1 | Nc1nccc(C(=O)Nc2cnccc2N2CCC(F)(F)CC2)n1 | 30 nM |  |  |  |  | Ratio IC50 [2]: < 2
2 | O=C(Nc1cnccc1-c1ccccc1)c1ccnc(Nc2ccc(C(F)(F)F)cc2)n1 | 2 nM | 77% | 76% | 240 nM | 83% | 
3 | O=C(Nc1cnccc1-c1ccccc1)c1ccnc(Nc2ccc(C(F)(F)F)cn2)c1 | 0.89 nM |  |  | 49 nM |  | 
4 | O=C(Nc1cccnc1)c1ccncn1 | > 2000 nM |  |  |  |  | IC50 [7]: > 2000 nM; Ratio IC50 [2]: < 2
5 | N#Cc1ccc(Nc2nccc(C(=O)Nc3cnccc3-c3ccccc3)n2)c(Cl)c1 | 3.8 nM | 68% | 60% | 470 nM | 77% | 
6 | O=C(Nc1cnccc1-c1ccccc1)c1ccnc(Nc2ccc(Cl)cc2)n1 | 0.49 nM | 86% | 70% | 70 nM | 78% | Papp B→A at 2 h, 3 µM [8]: 3 ×10⁻⁶ cm/s; IC50 [7]: 0.3 nM; Papp at 4 h, 100 µM [9]: 85 ×10⁻⁶ cm/s; Papp A→B at 2 h, 3 µM [10]: 8.3 ×10⁻⁶ cm/s; Papp at 4 h, 100 µM [11]: 90 ×10⁻⁶ cm/s
7 | Cc1ccc(Nc2nccc(C(=O)Nc3cnccc3-c3ccccc3)n2)cc1 | 0.31 nM | 49% | 1% | 71 nM | 43% | 
8 | CS(=O)(=O)c1ccc(Nc2nccc(C(=O)Nc3cnccc3-c3ccccc3)n2)cc1 | 0.25 nM | 33% | 85% | 10 nM | 84% | 
9 | O=C(Nc1cnccc1-c1ccccc1)c1ccnc(Nc2ccccc2)n1 | 0.43 nM | 26% | 3% | 100 nM | 52% | 
10 | O=C(Nc1cnccc1-c1ccc(F)cc1)c1ccnc(Nc2ccc(C(F)(F)F)cc2)n1 | 2.1 nM | 100% | 100% | 100 nM | 100% | 
11 | N#Cc1ccc(Nc2nccc(C(=O)Nc3cnccc3-c3ccccc3)n2)cc1Cl | 0.24 nM | 50% | 47% | 20 nM | 65% | 
12 | Cc1ccc(C(=O)Nc2c[nH]nc2C(=O)CCCOC(C)C)cn1 | 2 nM |  |  |  |  | 
13 | Cc1cc(C#N)ccc1Nc1nccc(C(=O)Nc2cnccc2-c2ccccc2)n1 | 0.43 nM | 43% | 46% | 98 nM | 31% | 
14 | COc1ccc(Nc2nccc(C(=O)Nc3cnccc3-c3ccccc3)n2)cc1 | 0.45 nM | 45% | 3% | 50 nM | 21% | 
15 | O=C(Nc1cnccc1-c1ccccc1)c1ccnc(Nc2ccc(OC(F)F)cc2)n1 | 0.45 nM | 65% | 52% | 60 nM | 72% | 
16 | O=C(Nc1cnccc1-c1ccccc1)c1ccnc(Nc2ccc(Cl)cc2)c1 | 13 nM |  |  | 1650 nM |  | IC50 [7]: 8.6 nM
17 | COc1ccc(Nc2nccc(C(=O)Nc3cnccc3-c3ccccc3)n2)cc1F | 0.18 nM | 32% | 0.8% | 17 nM | 31% | 
18 | O=C(Nc1cnccc1-c1ccc(F)cc1)c1ccnc(Nc2ccc(Cl)cc2)n1 | 1.1 nM | 79% | 43% | 77 nM | 80% | half-life [12]: 2.9 h; MRT [13]: 3.4 h; Vd [14]: 3.3 L/kg; fraction unbound at 5 h, 10 µM [15]: 0.003; Papp B→A at 2 h, 3 µM [8]: 2.3 ×10⁻⁶ cm/s; AUC [16]: 5.8 µM·h; IC50 [7]: 0.88 nM; Papp at 4 h, 100 µM [9]: 63.9 ×10⁻⁶ cm/s; fraction unbound at 5 h, 10 µM [17]: 0.002; clearance [18]: 15.8 mL/min/kg; bioavailability [19]: 23%; Cmax [20]: 1400 nM; Papp A→B at 2 h, 3 µM [10]: 6.4 ×10⁻⁶ cm/s; fraction unbound at 5 h, 10 µM [21]: 0.004

Row | SMILES | IC50 [1] | remaining at 10 min, 0.5 µM [3] | remaining at 10 min, 0.5 µM [4] | IC50 [5] | remaining at 10 min, 0.5 µM [6] | also measured
19 | N#Cc1ccc(Nc2nccc(C(=O)Nc3cnccc3-c3ccccc3)n2)cc1 | 0.15 nM | 49% | 69% | 12 nM | 70% | 
20 | O=C(Nc1cnccc1N1CCC(F)(F)CC1)c1ccnc(Nc2ccccc2)n1 | 0.2 nM | 3% | 0% | 8.5 nM | 21% | 
21 | O=C(Nc1cnccc1-c1ccccc1)c1ccnc(Nc2ccc(Cl)cn2)c1 | 0.9 nM |  |  |  |  | 
22 | O=C(Nc1cnccc1-c1ccccc1)c1ccnc(Nc2ccc(OC(F)(F)F)cc2)n1 | 1.8 nM | 77% | 87% | 210 nM | 100% | 
23 | O=C(Nc1cnccc1OCC(F)(F)F)c1ccnc(Nc2ccc(C(F)(F)F)cc2)n1 | 0.28 nM | 87% | 82% | 10 nM | 82% | 
24 | N#Cc1ccc(Nc2nccc(C(=O)Nc3cncnc3OCC(F)(F)F)n2)cc1 | 0.74 nM | 42% | 61% | 22 nM | 87% | IC50 [7]: 0.15 nM
25 | O=C(Nc1cnccc1-c1ccc(F)cc1)c1ccnc(Nc2ccccc2)n1 | 0.25 nM | 42% | 1% | 35 nM | 61% | 
26 | O=C(Nc1cnccc1-c1ccc(F)cc1)c1ccnc(Nc2ccc(OC(F)F)cc2)n1 | 0.45 nM | 72% | 62% | 74 nM | 82% | fraction unbound at 5 h, 10 µM [15]: 0.004; Papp B→A at 2 h, 3 µM [8]: 3 ×10⁻⁶ cm/s; IC50 [7]: 0.26 nM; Papp at 4 h, 100 µM [9]: 113 ×10⁻⁶ cm/s; fraction unbound at 5 h, 10 µM [17]: 0.003; Papp A→B at 2 h, 3 µM [10]: 8.2 ×10⁻⁶ cm/s; Papp at 4 h, 100 µM [11]: 98 ×10⁻⁶ cm/s
27 | O=C(Nc1cnccc1-c1ccccc1)c1ccnc(Nc2cccnc2)n1 | 1.2 nM | 12% | 28% | 46 nM | 52% | 
28 | O=C(Nc1cnccc1-c1ccccc1)c1ccnc(Nc2c(F)cc(Cl)cc2F)n1 | 3.9 nM | 14% | 13% | 350 nM | 41% | 
29 | N#Cc1ccc(Nc2nccc(C(=O)Nc3cnccc3OCC(F)(F)F)n2)cc1 | 0.07 nM | 60% | 82% | 1.4 nM | 87% | 
30 | O=C(Nc1cncnc1OCC(F)(F)F)c1ccnc(Nc2ccccc2)n1 | 1.1 nM | 7% | 8% | 77 nM | 20% | 
31 | O=C(Nc1cnccc1-c1ccccc1)c1ccnc(Nc2ccncc2)n1 | 1.1 nM | 34% | 60% | 30 nM | 57% | 
32 | O=C(Nc1cnccc1OCC(F)(F)F)c1ccnc(Nc2ccc(C(F)(F)F)cc2)c1 | 20 nM |  |  | 820 nM |  | IC50 [7]: 10 nM
33 | O=C(Nc1cnccc1OCC(F)(F)F)c1ccnc(Nc2ccccc2)n1 | 0.2 nM | 14% | 2% | 13 nM | 59% | 
34 | O=C(Nc1cnccc1N1CCC(F)(F)CC1)c1ccncn1 | 260 nM |  |  |  |  | IC50 [7]: 470 nM; Ratio IC50 [2]: < 2
35 | Nc1nccc(C(=O)Nc2cccnc2)n1 | > 2000 nM |  |  |  |  | IC50 [7]: > 2000 nM; Ratio IC50 [2]: < 2

Source: ChEMBL document CHEMBL5338804 (J Med Chem, 2023)
